pIC50: −log10 of the molar value. Where two headings read alike, the source gives them in different places.
Key:
[1] = test system: Serratia marcescens expressing IMP-1 (CL5741); assay: Antibiotic potentiation activity: synergistic concentration (MITC95) with imipenem, growth by OD600; assay type: cell-based
Procedure, shortened: (§1)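 Colonies from overnight agar plates (35 °C) were suspended in saline and diluted 1:100 into 1.1× CAMHB. Inhibitor (final 200 μM to 0.195 μM) was combined with imipenem at 1 or 4 μg/ml, incubated 22–24 h at 35 °C, and absorbance read; MITC95 is the lowest inhibitor concentration giving 95% growth inhibition.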

[2] = test system: Klebsiella pneumoniae expressing VIM-1 (IHMA599644); assay: as above; assay type: cell-based
Procedure, shortened: as §1

[3] = test system: Escherichia coli expressing NDM-1 (CLB30016); assay: as above; assay type: cell-based
Procedure, shortened: as §1

VIM-1 = VIM-1 (Pseudomonas aeruginosa, UniProt A0A0F7KYQ8); assay: Enzyme activity: determination of IC50, fluorescence assay with CCF2-FA substrate; assay type: biochemical; conditions: CCF2-FA 1.25 μM, 2 hours at 25° C., read-out: VIM1 IC50
Procedure, shortened: (§2)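 Enzyme at 1 pM (NDM-1), 2 pM (IMP-1) or 30 pM (VIM-1) was incubated with inhibitor (20 μM to 0.00063 μM) and 1.25 μM CCF2-FA in 100 mM KH2PO4 pH 7, 0.005% Tween-20, 10 μM ZnSO4 for 2 hours at 25° C. Fluorescence was read at ex 405/em 460 nm; IC50 from 4-parameter fit.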

IMP-1 = IMP-1 (Serratia marcescens, UniProt P52699); assay: as above; assay type: biochemical; conditions: CCF2-FA 1.25 μM, 2 hours at 25° C., read-out: IMP1 IC50
Chain of IMP-1 (P52699 19-246, looked up, species assumed): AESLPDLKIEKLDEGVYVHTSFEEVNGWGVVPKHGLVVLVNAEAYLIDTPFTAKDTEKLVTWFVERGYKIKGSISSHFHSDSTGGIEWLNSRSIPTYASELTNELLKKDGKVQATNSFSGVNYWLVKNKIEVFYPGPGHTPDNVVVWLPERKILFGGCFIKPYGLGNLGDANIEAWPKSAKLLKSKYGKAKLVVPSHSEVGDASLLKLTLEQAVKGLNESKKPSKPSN
Procedure, shortened: as §2

NDM-1 = NDM-1 (Klebsiella pneumoniae, UniProt C7C422); assay: as above; assay type: biochemical; conditions: CCF2-FA 1.25 μM, 2 hours at 25° C.
Chain of NDM-1 (C7C422 29-270, looked up, species assumed): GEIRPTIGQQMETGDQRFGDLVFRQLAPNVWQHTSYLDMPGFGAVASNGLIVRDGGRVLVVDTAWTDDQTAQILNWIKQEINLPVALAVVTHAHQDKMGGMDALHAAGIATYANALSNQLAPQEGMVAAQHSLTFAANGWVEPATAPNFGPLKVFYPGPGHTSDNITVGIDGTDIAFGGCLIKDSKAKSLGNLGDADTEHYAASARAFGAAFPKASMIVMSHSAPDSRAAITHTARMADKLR
Procedure, shortened: as §2

[4] = 95% inhibition of bacterial growth, strain CL5741
[5] = 95% inhibition of bacterial growth, strain IHMA599644
[6] = 95% inhibition of bacterial growth, strain CLB30016
[7] = enzyme 1 pM, read-out: NDM1 IC50
[8] = S. marcescens CL5741 (IMP-1), 95% inhibition of growth
[9] = K. pneumoniae IHMA599644 (VIM-1), 95% inhibition of growth
[10] = E. coli CLB30016 (NDM-1), 95% inhibition of growth
[11] = NDM-1 enzyme 1 pM, read-out: NDM1 IC50

Row | Structure (SMILES) | IMP1 SM5741 MITC95 [1, 4] [µM] | VIM1 KP599644 MITC95 [2, 5] [µM] | NDM1 EC30016 MITC95 [3, 6] [µM] | pIC50 (VIM-1; enzyme 30 pM) | pIC50 (IMP-1; enzyme 2 pM) | pIC50 (NDM-1; [7]) | IMP1 SM5741 MITC95 [1, 8] [µM] | VIM1 KP599644 MITC95 [2, 9] [µM] | NDM1 EC30016 MITC95 [3, 10] [µM] | pIC50 (VIM-1; VIM-1 enzyme 30 pM) | pIC50 (IMP-1; IMP-1 enzyme 2 pM) | pIC50 (NDM-1; [11]) | pIC50 (NDM-1; NDM1 IC50, NDM-1 enzyme 1 pM)
1 | CCC[C@H](C(=O)O)[C@H](Cc1ccc(NCCN2CCOCC2)cc1)c1nn[nH]n1 [Example 216, (2S)-2-[(1S)-2-{4-[(2-morpholin-4-ylethyl)amino]phenyl}-1-(2H-tetrazol-5-yl)ethyl]pentanoic acid] | 18.8 | 150 | 31 | 6.96 | 6.31 | 6.85 |  |  |  |  |  |  | 
2 | CC(C)(C)[C@H](C(=O)O)[C@H](Cc1cccc2sc(N)nc12)c1nnn[nH]1 [Example 424, (2R,3S)-4-(2-aminobenzo[d]thiazol-4-yl)-2-(tert-butyl)-3-(1H-tetrazol-5-yl)butanoic acid] |  |  |  |  |  |  | 25 | 200 | 12.5 | 7.97 | 8.03 | 8.57 | 
3 | CC(C)C[C@H](C(=O)O)[C@H](Cc1ccc(N2CC(C(C)(C)O)C2)nc1)c1nnn[nH]1 [Example 331, (2S)-2-[(1S)-2-{6-[3-(1-hydroxy-1-methylethyl)azetidin-1-yl]pyridin-3-yl}-1-(1H-tetrazol-5-yl)ethyl]-4-methylpentanoic acid] |  |  |  |  |  |  | 18.8 | 100 | 9.4 | 7.31 | 6.47 | 6.89 | 
4 | CCC[C@H](C(=O)O)[C@H](Cc1ccc(-c2cnc(NC(C)=O)nc2)nc1)c1nn[nH]n1 [Example 160, (2S)-2-[(1S)-2-{6-[2-(acetylamino)pyrimidin-5-yl]pyridin-3-yl}-1-(1H-tetrazol-5-yl)ethyl]pentanoic acid] | 50 | 75 | 38 | 8.24 | 5.80 | 7.30 |  |  |  |  |  |  | 
5 | CC(C)C[C@H](C(=O)O)[C@H](Cc1ccc(C2=CCNCC2)c(F)c1)c1nn[nH]n1 [Example 453, 4-(4-((2S,3S)-3-carboxy-5-methyl-2-(2H-tetrazol-5-yl)hexyl)-2-fluorophenyl)-1,2,3,6-tetrahydropyridin-1-ium 2,2,2-trifluoroacetate] |  |  |  |  |  |  | 3.125 | 12.5 | 6.25 | 8.65 | 7.00 |  | 7.19
6 | CCC[C@H](C(=O)O)[C@H](Cc1ccc(S(=O)(=O)C2CC2)nc1)c1nnn[nH]1 [Example 86, (2S)-2-[(1S)-2-[6-(cyclopropylsulfonyl)pyridin-3-yl]-1-(1H-tetrazol-5-yl)ethyl]pentanoic acid] | 125 | 100 | 50 | 7.96 | 5.48 | 6.89 |  |  |  |  |  |  | 
7 | CCC[C@H](C(=O)O)[C@H](Cc1cccc(N2CCN(C(C)=O)CC2)c1)c1nn[nH]n1 [Example 363, (2S)-2-[(1S)-2-[3-(4-acetylpiperazin-1-yl)phenyl]-1-(2H-tetrazol-5-yl)ethyl]pentanoic acid] |  |  |  |  |  |  | 25 | 100 | 100 | 7.70 | 6.09 | 6.82 | 
8 | CC(C)C[C@H](C(=O)O)[C@H](Cc1ccc(N2CC(N3CCOCC3)C2)nc1)c1nnn[nH]1 [Example 329, (2S)-4-methyl-2-[(1S)-2-[6-(3-morpholin-4-ylazetidin-1-yl)pyridin-3-yl]-1-(1H-tetrazol-5-yl)ethyl]pentanoic acid] |  |  |  |  |  |  | 25 | >200 | 12.5 | 7.31 | 6.35 | 6.77 | 
9 | CC(C)C[C@H](C(=O)O)[C@H](Cc1ccc(N2CCCC2)nc1)c1nnn[nH]1 [Example 304, (2S)-4-methyl-2-[(1S)-2-(6-pyrrolidin-1-ylpyridin-3-yl)-1-(1H-tetrazol-5-yl)ethyl]pentanoic acid] |  |  |  |  |  |  | 38 | 18.8 | 4.7 | 8.11 | 5.89 | 6.77 | 
10 | CC(C)[C@H](C(=O)O)[C@H](Cc1ccc(C2=CCNC2)c(F)c1)c1nnn[nH]1 [Example 69, (2S,3S)-4-(4-(2,5-dihydro-1H-pyrrol-3-yl)-3-fluorophenyl)-2-isopropyl-3-(1H-tetrazol-5-yl)butanoic acid] | 6.2 | 6.2 | 3.1 | 8.89 | 6.11 | 7.60 |  |  |  |  |  |  | 
11 | CCC[C@H](C(=O)O)[C@H](Cc1ccc(Br)s1)c1nnn[nH]1 [Example 425, (S)-2-((S)-2-(5-bromothiophen-2-yl)-1-(1H-tetrazol-5-yl)ethyl)pentanoic acid] |  |  |  |  |  |  | 25 | 12.5 | 12.5 | 8.44 | 6.55 | 6.98 | 
12 | CCC[C@H](C(=O)O)[C@H](Cc1ccc(C2CCN(C)CC2)cc1)c1nn[nH]n1 [Example 300, (2S)-2-[(1S)-2-[4-(1-methylpiperidin-4-yl)phenyl]-1-(2H-tetrazol-5-yl)ethyl]pentanoic acid] |  |  |  |  |  |  | 25 | 100 | 50 | 6.85 | 5.68 | 6.26 | 
13 | CCC[C@H](C(=O)O)[C@H](Cc1cccc(C(=O)O)n1)c1nnn[nH]1 [Example 94, 6-((2S,3)-3-carboxy-2-(1H-tetrazol-5-yl)hexyl)picolinic acid] | >200 | 200 | 50 | 5.54 | < 4.70 | 5.35 |  |  |  |  |  |  | 
14 | CCC[C@@H](C(=O)O)[C@H](Cc1ccc(-c2ccc(N3CCNCC3)nc2)cc1)c1nnn[nH]1 [Example 57, (2R)-2-[(1S)-2-[4-(6-piperazin-1-ylpyridin-3-yl)phenyl]-1-(1H-tetrazol-5-yl)ethyl]pentanoic acid] | 150 | >200 | 200 | 6.77 | 5.55 | 6.19 |  |  |  |  |  |  | 
15 | CCC[C@H](C(=O)O)[C@H](Cc1cccc(-c2ccc(N)nc2)c1)c1nn[nH]n1 [Example 342, (2S)-2-[(1S)-2-[3-(6-aminopyridin-3-yl)phenyl]-1-(2H-tetrazol-5-yl)ethyl]pentanoic acid] |  |  |  |  |  |  | 3.1 | 12.5 | 6.2 | 8.96 | 6.77 | 8.33 | 
16 | CC(C)[C@H](C(=O)O)[C@H](Cc1ccc(C2=CCNC2)cn1)c1nnn[nH]1 [Example 65, (2S,3S)-4-(5-(2,5-dihydro-1H-pyrrol-3-yl)pyridin-2-yl)-2-isopropyl-3-(1H-tetrazol-5-yl)butanoic acid] | 200 | 12.5 | 3.1 | 7.14 | < 4.70 | 6.12 |  |  |  |  |  |  | 
17 | CC(C)C[C@H](C(=O)O)[C@H](Cc1ccc(N)cn1)c1nnn[nH]1 [Example 113, 5-amino-2-((2S,3S)-3-carboxy-5-methyl-2-(2H-tetrazol-5-yl)hexyl)pyridin-1-ium 2,2,2-trifluoroacetate] | 18.8 | 9.4 | 0.78 | 7.10 | 5.68 | 6.89 |  |  |  |  |  |  | 
18 | CC(C)C[C@H](C(=O)O)[C@H](Cc1ccc(C2=CCC(N)CC2)c(F)c1)c1nn[nH]n1 (stereo partly drawn) [Example 455, 4′-((2S,3S)-3-carboxy-5-methyl-2-(2H-tetrazol-5-yl)hexyl)-2′-fluoro-2,3,4,5-tetrahydro-[1,1′-biphenyl]-4-aminium 2,2,2-trifluoroacetate] |  |  |  |  |  |  | 3.125 | 18.75 | 4.688 | 8.47 | 7.62 | 7.63 | 
19 | CC(C)[C@H](C(=O)O)[C@H](Cc1cnc(N)nc1)c1nnn[nH]1 [Example 128, (2S,3S)-4-(2-aminopyrimidin-5-yl)-2-isopropyl-3-(1H-tetrazol-5-yl)butanoic acid] | >200 | 50 | 9.4 | 7.29 | 4.80 | 6.82 |  |  |  |  |  |  | 
